pIC50: −log10 of the molar value.
Columns and labels:
[1] = tested on: P. falciparum male gametocytes; assay: P. falciparum Dual Gamete Formation Assay (PfDGFA), male readout (exflagellation); assay type: cell-based, Plasmodium falciparum NF54; conditions: for pIC50: this study, read-out: Pf DGFA IC50 MALE; for Average inhibition male (%): average of replicates; for % inhibition male (individual replicates) R1: replicate R1; for % inhibition male (individual replicates) R3: replicate R3; for % inhibition male (individual replicates) R4: replicate R4
Outline: (§1)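 First, day-14 P. falciparum NF54 gametocytes receive compound for 24 h at 37°C in 1% O2/3% CO2. Next, ookinete medium with Cy3 anti-Pfs25 triggers gametogenesis at 28°C and male exflagellation is imaged. Finally, after 24 h in the dark, Cy3-labelled females are imaged.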

[2] = tested on: P. falciparum female gametocytes; assay: P. falciparum Dual Gamete Formation Assay (PfDGFA), female readout (Pfs25-positive female gametes); assay type: cell-based, Plasmodium falciparum NF54; conditions: for pIC50: this study, read-out: Pf DGFA IC50 FEM; for Average inhibition female (%): average of replicates; for % inhibition female (individual replicates) R1: replicate R1; for % inhibition female (individual replicates) R3: replicate R3; for % inhibition female (individual replicates) R4: replicate R4
Outline: as §1

[3] = tested on: HepG2 cells; assay: HepG2 cytotoxicity counter-screen; conditions: for Mean TOX: mean of the HepG2 TOX50 values; for DGFA Tox50 HepG2: HepG2 value reported with the DGFA screen
[4] = 2µM, 24h preincubation with gametocytes prior to induction of gametogenesis
[5] = PfDGFA at 2µM, 24h preincubation with gametocytes prior to induction of gametogenesis
[6] = PfDGFA at 2µM, 24h preincubation
[7] = 2µM, 24h preincubation with gametocytes

Compound: C=CCNc1cc(-c2ccccn2)nc(-c2ccccn2)n1 [TC01]
- Cytotox ratio Pf Male [1]: 13.8
- pIC50 [1]: 6.04
- Cytotox ratio Pf Female [2]: 2.6
- pIC50 [2]: 5.31
- Mean TOX [3]: 12.58 µM

Compound: c1ccc2[nH]c(CN(Cc3nc4ccccc4[nH]3)Cc3nc4ccccc4[nH]3)nc2c1 [TC03]
- Cytotox ratio Pf Male [1]: 14.8
- pIC50 [1]: 5.17
- Cytotox ratio Pf Female [2]: 10.0
- DGFA Tox50 HepG2 [3]: 100 µM
- Mean TOX [3]: 100.00 µM

Compound: FC(F)(F)c1cccc(NC(=S)NN=Cc2ccccn2)c1 [TC06]
- Cytotox ratio Pf Male [1]: 142.9
- pIC50 [1]: 6.15
- Cytotox ratio Pf Female [2]: 142.9
- pIC50 [2]: 6.15
- DGFA Tox50 HepG2 [3]: 100 µM
- Mean TOX [3]: 100.00 µM

Compound: O=C(Cc1cccc(O)c1)NCC(Cc1ccc(O)cc1)c1ccccc1 (centres unmarked) [TC08]
- Cytotox ratio Pf Male [1]: 58.1
- pIC50 [1]: 5.76
- Cytotox ratio Pf Female [2]: 10.0
- DGFA Tox50 HepG2 [3]: 100 µM
- Mean TOX [3]: 100.00 µM

Compound: N=C(N)NCCN(Cc1ccccc1)c1ccc(Cl)cc1 [TC09]
- Cytotox ratio Pf Male [1]: 72.7
- pIC50 [1]: 6.17
- Cytotox ratio Pf Female [2]: 7.5
- pIC50 [2]: 5.19
- Mean TOX [3]: 48.68 µM

Compound: COc1ccc2c(c1)nc(CNC(=N)N)n2Cc1ccc(Cl)cc1.Cl [TCMDC-142042]
- Average inhibition male (%) [1, 4]: -2.9%
- % inhibition male (individual replicates) R1 [1, 4]: -15.5%
- % inhibition male (individual replicates) R3 [1, 4]: -14.5%
- % inhibition male (individual replicates) R4 [1, 4]: 30.2%
- HitlevelM ([1]; 2µM, 24h preincubation, hits selected on >50% inhibition in the male readout across replicates): 0
- Activity ([1]; PfDGFA at 2µM, 24h preincubation, hit = >50% inhibition in male or female readout in at least 3 replicates, 0 = no class assigned): 0
- Average inhibition female (%) [2, 4]: 8.7%
- % inhibition female (individual replicates) R1 [2, 4]: 5.3%
- % inhibition female (individual replicates) R3 [2, 4]: -8.2%
- % inhibition female (individual replicates) R4 [2, 4]: 2.2%
- HitlevelF ([2]; 2µM, 24h preincubation, hits selected on >50% inhibition in the female readout across replicates): 0

Compound: Cc1ccc2nc(C)cc(N/N=C/c3ccc([N+](=O)[O-])cc3)c2c1 [TCMDC-142070]
- % inhibition male (individual replicates) R1 [1, 5]: -12.6%
- % inhibition male (individual replicates) R3 [1, 5]: -7.9%
- % inhibition male (individual replicates) R4 [1, 5]: 12.9%
- Average inhibition male (%) [1, 6]: -0.848%
- % inhibition female (individual replicates) R1 [2, 5]: 9.6%
- % inhibition female (individual replicates) R3 [2, 5]: -4.2%
- % inhibition female (individual replicates) R4 [2, 5]: -9.4%
- Average inhibition female (%) [2, 6]: 1.3%

Compound: CC1(C)N=C(N)N=C(N)N1c1ccc(Cl)c(Cl)c1.Cl [TCMDC-142180]
- % inhibition male (individual replicates) R1 [1, 5]: 8.4%
- % inhibition male (individual replicates) R4 [1, 5]: -27.5%
- Average inhibition male (%) [1, 6]: 6.9%
- % inhibition female (individual replicates) R1 [2, 5]: -5.5%
- % inhibition female (individual replicates) R3 [2, 5]: -6.4%
- % inhibition female (individual replicates) R4 [2, 5]: 1.4%
- Average inhibition female (%) [2, 6]: -4.7%

Compound: CCOc1ccc2c(=NN=Cc3ccc(OC)c(OC)c3)cc(C)[nH]c2c1 [TCMDC-142206]
- Average inhibition male (%) [1, 4]: 11.1%
- % inhibition male (individual replicates) R1 [1, 4]: 9.5%
- % inhibition male (individual replicates) R3 [1, 4]: 6.4%
- % inhibition male (individual replicates) R4 [1, 4]: 28.2%
- HitlevelM ([1]; 2µM, 24h preincubation, number of replicates with >50% inhibition in the male readout): 0
- Average inhibition female (%) [2, 4]: 22.4%
- % inhibition female (individual replicates) R1 [2, 4]: 27.0%
- % inhibition female (individual replicates) R3 [2, 4]: -3.4%
- % inhibition female (individual replicates) R4 [2, 4]: 40.7%
- HitlevelF ([2]; 2µM, 24h preincubation, number of replicates with >50% inhibition in the female readout): 0

Compound: Cl.Nc1c(I)cc(C(=O)Nc2ccc3nc4c(c(N)c3c2)CCCC4)cc1I [TCMDC-142289]
- Average inhibition male (%) [1, 7]: 92.1%
- % inhibition male (individual replicates) R1 [1, 7]: 89.6%
- % inhibition male (individual replicates) R4 [1, 7]: 96.1%
- Average inhibition female (%) [2, 7]: 49.6%
- % inhibition female (individual replicates) R1 [2, 7]: 51.7%
- % inhibition female (individual replicates) R3 [2, 7]: 34.7%
- % inhibition female (individual replicates) R4 [2, 7]: 48.7%

Compound: O=c1c(NCCCN(Cc2ccc(F)cc2)c2ccccn2)c(NCc2ccncc2)c1=O [TCMDC-142310]
- % inhibition male (individual replicates) R1 [1, 5]: -3.0%
- % inhibition male (individual replicates) R3 [1, 5]: -19.8%
- % inhibition male (individual replicates) R4 [1, 5]: -2.5%
- Average inhibition male (%) [1, 6]: -8.8%
- % inhibition female (individual replicates) R1 [2, 5]: 6.5%
- % inhibition female (individual replicates) R3 [2, 5]: -28.2%
- % inhibition female (individual replicates) R4 [2, 5]: -7.1%
- Average inhibition female (%) [2, 6]: -7.2%
